Experimental data: patent publication US7129346B2, “Crown ether derivatives” (Molecular Probes, Inc., priority 2000, dated 2006)
Entries after “also recorded” stand apart in the source; their conditions may differ.

Tests used:
[1] = Indicator fluorescence response titration, dissociation constant for Na+; type: binding
Protocol: (§1) The fluorescence response of a selected compound of the invention as a function of ion concentration was determined by dissolving a sample of the pure compound in 3 mL of each of two solutions: solution 1 (“high”) consists of 200 mM NaCl (or other appropriate ion) and 10 mM MOPS buffer at pH 7.05; solution 2 (“zero”) consists of 10 mM MOPS buffer at pH 7.05 in deionized water. […]. A least-squares fit was used to arrive at the concentration where the selected indicator was maximally sensitive to changes in Na^+ concentration. This corresponded to the dissociation constant of that indicator for Na^+ and was expressed as a concentration.
(§2) This methodology was repeated for K+, Li+ and Tb+ to obtain emission spectra and to calculate the Kd values. See, Table 2 and FIG. 4
For visible wavelength probes such as Compound 22 (Example 17), Compound 27 (Example 22) and Compound 86 (Example 79) the indicator's fluorescence emission was typically scanned from 450–650 nm while the sample was excited at the absorption maximum wavelength. For UV-excitable ratiometric probes such as Compound 51 (Example 46), the excitation wavelengths of the dye in solution 2 were scanned from 260 to 450 nm while monitoring constant fluorescence emission at 510 nm (as in FIG. 1). […]

[2] = Indicator fluorescence response titration, dissociation constant for K+; type: binding
Protocol: The fluorescence response of a selected compound of the invention as a function of ion concentration was determined by dissolving a sample of the pure compound in 3 mL of each of two solutions: solution 1 (“high”) consists of 200 mM NaCl (or other appropriate ion) and 10 mM MOPS buffer at pH 7.05; solution 2 (“zero”) consists of 10 mM MOPS buffer at pH 7.05 in deionized water. A series of curves are generated by cross dilution between the two solutions to arrive at intermediate concentrations of Na+, K+, Li+ and Tb+. The emission of a selected indicator in solution 2 was scanned and then was repeated to cover the entire range from zero to 200 mM Na^+. For example, the fluorescence emission of the chosen indicator was scanned while the sample was excited at that indicator's absorption maximum wavelength, and then 1/100 of the sample was removed and replaced with 1/100 of solution 1 to arrive at a Na^+ concentration of 2 mM. This dilution was repeated to cover the entire range from zero to […] Na^+ and the resulting emission intensities were plotted versus the ion concentrations. A least-squares fit was used to arrive at the concentration where the selected indicator was maximally sensitive to changes in Na^+ concentration. This corresponded to the dissociation constant of that indicator for Na^+ and was expressed as a concentration.
as §2
(§3) For visible wavelength probes such as Compound 22 (Example 17), Compound 27 (Example 22) and Compound 86 (Example 79) the indicator's fluorescence emission was typically scanned from 450–650 nm while the sample was excited at the absorption maximum wavelength. For UV-excitable ratiometric probes such as Compound 51 (Example 46), the excitation wavelengths of the dye in solution 2 were scanned from 260 to 450 nm while monitoring constant fluorescence emission at 510 nm (as in FIG. 1).

[3] = Indicator fluorescence response titration, dissociation constant for Zn2+; type: binding; conditions: Table 1, Formula (I) compounds; approximate values; read-out: Dissociation Constant (target ion) Kd (Zn^2+)
Protocol: as §1

[4] = Indicator fluorescence response titration, dissociation constant for Ca2+; type: binding; conditions: Table 1, Formula (I) compounds, read-out: Dissociation Constant (target ion) Kd (Ca^2+)
Protocol: as §1

Jurkat cells = assay: Calibration of sodium indicator fluorescence response in cells (flow cytometry); type: cell-based; conditions: 2 μM gramicidin, extracellular Na+ 0-145 mM, excitation 488 nm; for Intracellular fluorescence response to increasing intracellular Na^+ concentration: Jurkat cells, 5 μM Compound 25 or 10 μM Compound 87
Protocol: Jurkat cells were loaded with a 5 μM solution of either Compound 25 (Example 20), or commercially available SODIUM GREEN tetraacetate indicator (Molecular Probes, Inc., Eugene, Oreg.) and 10 μM for Compound 87 (Example 80) for 30 minutes at 37° C. The use of PLURONIC dispersing agent helped dissolve the selected indicator. Intracellular sodium concentrations were then established by varying the sodium concentration of the extracellular buffer in the presence of 2 μM gramicidin (a sodium-pore forming antibiotic). The extracellular buffer was set at 0 mM, 10 mM, 20 mM, 50 mM, 100 mM, and 145 mM, respectively. Intracellular fluorescence response of the selected indicators was measured using a FACSCAN flow cytometer and associated software, with fluorescence excitation at 488 nm.

[5] = Indicator fluorescence response titration, dissociation constant for Rb+; type: binding; conditions: Table 2, Formula (II) compounds, in solution
Protocol: as §1, §2, §3

[6] = Indicator fluorescence response titration, dissociation constant for Li+; type: binding; conditions: Table 2, Formula (II) compounds, in solution
Protocol: as §1, §2, §3

[7] = Table 1, Formula (I) compounds, approximate values, read-out: Dissociation Constant (target ion) Kd (Na^+)
[8] = Table 2, Formula (II) compounds, in solution
[9] = Table 2, Formula (II) compounds, in solution, 10 mM MOPS pH 7.05, read-out: Dissociation constant Kd (Na^+)

**Q.** For `COC(=O)CN1CCOCCN(CC(=O)OC)c2cc3oc(-c4ncc(C(=O)O)o4)cc3cc2OCCOc2cc(C)ccc21`, which Kd [1, 7] is on record?
**A.** ~52 mM

**Q.** Which results are given for `COC(=O)CN1CCOCCN(CC(=O)OC)c2ccc(-c3cc4ccc(C(=O)OC)cc4[nH]3)cc2OCCOc2cc(C)ccc21`?
**A.** Kd ([2]; Table 1, Formula (I) compounds, approximate value printed in nM, read-out: Dissociation Constant (target ion) Kd (K^+)): ~115 nM; Kd [1, 7]: ~30 mM

**Q.** For `COC(=O)CN1CCOCCN(CC(=O)OC)c2cc(OCC(=O)O)c(-c3cc4ccc(C(=O)OC)cc4[nH]3)cc2OCCOc2cc(C)ccc21`, which Kd [1, 7] is on record?
**A.** ~52 mM

**Q.** For `COC(=O)CN1CCOCCN(CC(=O)OC)c2ccc(-c3c4cc(F)c(=O)cc-4oc4cc(O)c(F)cc34)cc2OCCOc2cc(C)ccc21`, which Kd [1, 7] is on record?
**A.** ~60 mM

**Q.** Which Kd [1, 7] does the source give for `COC(=O)CN1CCOCCN(CC(=O)OC)c2ccc(-c3c4ccc(=[N+](C)C)cc-4oc4cc(N(C)C)ccc34)cc2OCCOc2cc(C)ccc21` here?
**A.** ~95 mM

**Q.** With `COC(=O)CN1CCOCCN(CC(=O)OC)c2cc(OCC(=O)[O-])c(-c3c4ccc(=[N+](C)C)cc-4oc4cc(N(C)C)ccc34)cc2OCCOc2cc(C)ccc21` as the compound, how does the Kd [1, 7] read?
**A.** ~92 mM

**Q.** Which Kd [3] does the source give for `Cc1ccc2c(c1)OCCOc1cc(-c3c4ccc(=[N+](C)C)cc-4oc4cc(N(C)C)ccc34)c(OCC(=O)O)cc1N(CC(=O)O)CCOCCN2CC(=O)O` here?
**A.** ~0.0001 mM

**Q.** And the Kd [1, 7]?
**A.** ~70 mM

**Q.** Which Kd [1, 7] does the source give for `COC(=O)CN1CCOCCN(CC(=O)OC)c2cc(OCC(=O)NC(CC(=O)O)C(=O)[O-])c(-c3c4ccc(=[N+](C)C)cc-4oc4cc(N(C)C)ccc34)cc2OCCOc2cc(C)ccc21` (centres unmarked) here?
**A.** ~85 mM

**Q.** For `CCCCCCCCCCCCCCCCCCNC(=O)COc1cc2c(cc1-c1c3ccc(=[N+](C)C)cc-3oc3cc(N(C)C)ccc13)OCCOc1cc(C)ccc1N(CC(=O)OC)CCOCCN2CC(=O)OC`, which Kd [1, 7] is on record?
**A.** ~14 mM

**Q.** With `Cc1ccc2c(c1)OCCOc1cc(-c3c4ccc(=[N+](C)C)cc-4oc4cc(N(C)C)ccc34)ccc1N(CC(=O)O)CCOCCN2CC(=O)[O-]` as the compound, how does the Kd [3] read?
**A.** ~0.0003 mM

**Q.** What about the Kd ([4]; approximate values) of the same compound?
**A.** ~0.004 mM

**Q.** And the Kd [1, 7]?
**A.** ~38 mM

**Q.** Which results are given for `Cc1ccc2c(c1)OCCOc1cc(C3=c4cc5c6c(c4Oc4c3cc3c7c4CCCN7CCC3)CCC[N+]=6CCC5)ccc1N(CC(=O)O)CCOCCN2CC(=O)[O-]`?
**A.** Kd [3]: ~0.008 mM; Kd ([4]; approximate values): ~0.007 mM

**Q.** For `Cc1ccc2c(c1)OCCOc1cc(-c3c4cc(F)c(=O)cc-4oc4cc(O)c(F)cc34)ccc1N(CC(=O)O)CCOCCN2CC(=O)O`, which Kd [3] is on record?
**A.** ~0.0003 mM

**Q.** And the Kd ([4]; approximate values)?
**A.** ~0.005 mM

**Q.** And the Kd [1, 7]?
**A.** ~36 mM

**Q.** For `Cc1ccc2c(c1)OCCOc1cc(-c3c4cc(F)c(=O)cc-4oc4cc(O)c(F)cc34)ccc1N(CC(N)=O)CCOCCN2CC(N)=O`, which Kd [3] is on record?
**A.** ~0.6 mM

**Q.** For `Cc1ccc2c(c1)OCCOc1cc(-c3c4ccc(=[N+](C)C)cc-4oc4cc(N(C)C)ccc34)ccc1N(CC(N)=O)CCOCCN2CC(N)=O`, which Kd [3] is on record?
**A.** ~0.65 mM

**Q.** For `Cc1ccc2c(c1)OCCOc1cc3cc(-c4ncc(C(=O)O)o4)oc3cc1N(CC(=O)O)CCOCCN2CC(=O)O`, which Kd ([4]; approximate value) is on record?
**A.** ~0.0004 mM

**Q.** Which “Intracellular fluorescence intensity compared with SODIUM GREEN indicator” value (Jurkat cells; Jurkat cells loaded with 5 μM for 30 minutes at 37° C., FIG. 3) does the source give for `COC(=O)OCOC(=O)CN1CCOCCN(CC(=O)OCOC(C)=O)c2ccc(C)cc2OCCOc2cc(C3=C4C=C(F)C(O)C=C4Oc4cc(OCOC(C)=O)c(F)cc43)ccc21` (centres unmarked) [Compound 25] here?
**A.** stronger fluorescence intensity than SODIUM GREEN sodium indicator; also recorded: substantially brighter intracellular fluorescence intensity than the SODIUM GREEN indicator

**Q.** What about the “Intracellular fluorescence response to increasing intracellular Na^+ concentration” value (Jurkat cells) of the same compound?
**A.** consistent increase in fluorescence intensity

**Q.** Which “Response to complexation (R = F/F0), R (Rb^+)” value [5] does the source give for `COC(=O)CN1CCOCCOCCOCCOc2cc(-c3c4cc(F)c(=O)cc-4oc4cc(O)c(F)cc34)ccc21` [Compound 86] here?
**A.** 2.7

**Q.** And the “Response to complexation (R = F/F0), R (Li^+)” value [6]?
**A.** 6.8

**Q.** And the “Response to complexation (R = F/F0), R (K^+)” value [2, 8]?
**A.** 6.9

**Q.** What about the “Response to complexation (R = F/F0), R (Na^+)” value (“Response … (Na^+)” below) [1, 8] of the same compound?
**A.** 28.5

**Q.** What about the Kd [1, 9] of the same compound?
**A.** 82 mM

**Q.** Which “Intracellular fluorescence response to increasing intracellular Na^+ concentration” value (Jurkat cells) does the source give for `COC(=O)CN1CCOCCOCCOCCOc2cc(-c3c4cc(F)c(=O)cc-4oc4cc(OCOC(C)=O)c(F)cc34)ccc21` [Compound 87] here?
**A.** increased fluorescent signal with increasing concentrations of sodium ions

**Q.** Which “Dissociation constant Kd (K^+)” value ([2]; Table 2, Formula (II) compounds, in solution, 10 mM MOPS pH 7.05) does the source give for `COC(=O)CN1CCOCCOCCOCCOc2cc(-c3cc4ccc(C(=O)OC)cc4[nH]3)ccc21` [Compound 93] here?
**A.** Kd (K^+) = no sensitivity

**Q.** And the “Response … (Na^+)” value [1, 8]?
**A.** 25

**Q.** And the Kd [1, 9]?
**A.** 89 mM

**Q.** With `COCCN1CCOCCOCCOCCOc2cc(-c3c4cc(F)c(=O)cc-4oc4cc(O)c(F)cc34)ccc21` [Compound 115] as the compound, how does the “Response to complexation (R = F/F0), R (K^+)” value [2, 8] read?
**A.** 2.8

**Q.** What about the “Response … (Na^+)” value [1, 8] of the same compound?
**A.** 5.9

**Q.** And the Kd [1, 9]?
**A.** 78.8 mM

**Q.** Which “Response … (Na^+)” value [1, 8] does the source give for `COCCN1CCOCCOCCOCCOc2cc(-c3cc4ccc(C(=O)OC)cc4[nH]3)ccc21` [Compound 120] here?
**A.** 2

**Q.** And the Kd [1, 9]?
**A.** 89 mM

**Q.** Which “Response … (Na^+)” value [1, 8] does the source give for `COC(=O)c1ccc2cc(-c3ccc4c(c3)OCCOCCOCCOCCN4CCN(C)C)[nH]c2c1` [Compound 126] here?
**A.** −1.2

**Q.** For `O=C([O-])CN1CCOCCOCCOCCOc2cc(-c3c4cc(F)c(=O)cc-4oc4cc(O)c(F)cc34)ccc21.[K+]` [Compound 127], which “Response … (Na^+)” value [1, 8] is on record?
**A.** 3.6

**Q.** What about the Kd [1, 9] of the same compound?
**A.** 20 mM
